Among the data in ChEMBL document CHEMBL3045673, “Synthesis of some novel 2-substituted benzoxazoles as anticancer, antifungal, and antimicrobial agents” (2008) are inhibition, zone of inhibition and Activity values, retold here.

One may read the inhibition as the percentage by which the read-out fell short of the control. A lower inhibition goes with little suppression.

Molecules are shown by their SMILES. Activity calls are given as the source filed them. The calls are words filed in the database; no cut-off is given here.

Assay [1] relates to Aspergillus niger. The assay can be described thus: Antifungal activity against Aspergillus niger at 50 ug/ml after 48 hr by agar plate diffusion method. The format is functional.
The test system of assay [2] is Klebsiella pneumoniae. The assay is described as follows: Antibacterial activity against Klebsiella pneumoniae at 10 ug/ml after 24 hr by disk diffusion method. The format is functional. Particulars: read-out: DIZ. On the technique in general: Agar diffusion results depend on both activity and mobility in agar.
The subject of assay [3] is MCF7. The assay is described as follows: Cytotoxicity against Homo sapiens (human) MCF7 cells by MTT assay. The class given is functional, cell-based. For orientation: Tetrazolium dyes change colour on reduction, which living cells bring about.
The test system of assay [4] is HeLa. The assay is described as follows: Cytotoxicity against Homo sapiens (human) HeLa cells by MTT assay. The format is functional, cell-based.
Assay [5] concerns HepG2. The assay is described as follows: Cytotoxicity against Homo sapiens (human) HepG2 cells by MTT assay. The class given is functional, cell-based.
The subject of assay [6] is Pseudomonas aeruginosa. The assay can be described thus: Antibacterial activity against Pseudomonas aeruginosa at 10 ug/ml after 24 hr by disk diffusion method. Particulars: read-out: DIZ. The class given is functional.
The test system of assay [7] is WiDr. The assay is described as follows: Cytotoxicity against Homo sapiens (human) WiDr cells by MTT assay. The class given is functional, cell-based.
For assay [8], the system named is Staphylococcus aureus. The assay is described as follows: Antibacterial activity against Staphylococcus aureus at 10 ug/ml after 24 hr by disk diffusion method. The class given is functional. Particulars: read-out: DIZ.
The subject of assay [9] is Aspergillus flavus. The assay is described as follows: Antifungal activity against Aspergillus flavus at 50 ug/ml after 48 hr by agar plate diffusion method. The class given is functional.

`N#C/C(=C\c1ccc(O)cc1)c1nc2cc(Cl)ccc2o1`: the inhibition at 50 µg/mL in assay [1] came out at 50%; in [9], 60%. For the same compound, the zone of inhibition at 10 µg/mL in assay [2], in assay [6] and in [8] was 10 mm each time. Further, the result in [3] and in assay [7] was inactive. Moreover, the outcome in [4] and in [5] was Active.
For `COc1ccc(N/N=C(\C#N)c2nc3cc(Cl)ccc3o2)cc1`, the results for the inhibition at 50 µg/mL in [1] and in assay [9] were 65% and 50%, respectively. The zone of inhibition at 10 µg/mL is 5 mm in [2], 5 mm in assay [6] and 10 mm in assay [8]. In addition, the outcome in [3], in assay [4], in [5] and in assay [7] was Active.
Turning to `N#C/C(=N\Nc1ccccc1)c1nc2cc(Cl)ccc2o1`, the zone of inhibition at 10 µg/mL in assay [2], in assay [6] and in assay [8] was 10 mm throughout. Further, the outcome in assay [3] and in assay [7] was inactive. Also, the result in [4] and in [5] was Active.
As for `COc1ccc(/C=C(\C#N)c2nc3cc(Cl)ccc3o2)cc1`, the inhibition at 50 µg/mL in [1] and in [9] was 65% throughout. The zone of inhibition at 10 µg/mL in assay [2] is 10 mm; in assay [6], 10 mm; in assay [8], 5 mm. In addition, the outcome in assay [3], in [4], in [5] and in [7] was Active.
As to `N#C/C(=N\Nc1ccc(Cl)cc1)c1nc2cc(Cl)ccc2o1`, the inhibition at 50 µg/mL in assay [1] was determined as 70%; in assay [9], 65%. The zone of inhibition at 10 µg/mL in [2] is 10 mm; in assay [6], 10 mm; in assay [8] it was 5 mm. Also, the result in assay [3] was Active. For the same compound, the outcome in [4], in assay [5] and in assay [7] was inactive.
For the compound `COc1cc(/C=C(\C#N)c2nc3cc(Cl)ccc3o2)cc(OC)c1OC`, the results for the inhibition at 50 µg/mL in assay [1] and in [9] were 80% and 85%, respectively. Besides, the zone of inhibition at 10 µg/mL is 10 mm in assay [2], 15 mm in assay [6] and 15 mm in assay [8]. The outcome in assay [3], in assay [4], in assay [5] and in [7] was Active.
Take `N#CC(=C1CCCCC1)c1nc2cc(Cl)ccc2o1`: the inhibition at 50 µg/mL in assay [1] turned out to be 60%; in assay [9] it was 75%. Besides, the figures for the zone of inhibition at 10 µg/mL in assay [2], in assay [6] and in assay [8] were 5 mm, 10 mm and 10 mm, respectively. The result in [3] was inactive. The outcome in assay [4], in [5] and in [7] was Active.
`N#C/C(=N\Nc1ccc(Br)cc1)c1nc2cc(Cl)ccc2o1`: the zone of inhibition at 10 µg/mL in assay [2], in assay [6] and in assay [8] was 10 mm each time. Also, the outcome in assay [3], in assay [4] and in assay [5] was Active. Moreover, the outcome in [7] was inactive.
For the compound `COc1cc(/C=C(\C#N)c2nc3cc(F)ccc3o2)cc(OC)c1OC`, the values for the inhibition at 50 µg/mL in [1] and in assay [9] were 95% and 90%, respectively. For the same compound, the zone of inhibition at 10 µg/mL amounted to 15 mm in assay [2], 20 mm in assay [6] and 20 mm in assay [8]. The result in assay [3], in assay [4], in [5] and in [7] was Active.
Turning to `N#CC(=C1CCCC1)c1nc2cc(Cl)ccc2o1`, the inhibition at 50 µg/mL in assay [1] turned out to be 75%; in assay [9] it was 60%. The values for the zone of inhibition at 10 µg/mL in assay [2], in assay [6] and in [8] were 10 mm, 10 mm and 15 mm, respectively. For the same compound, the outcome in [3], in assay [4], in [5] and in assay [7] was Active.
Turning to `N#C/C(=C\c1ccccc1)c1nc2cc(Cl)ccc2o1`, the inhibition at 50 µg/mL stood at 65% in [1] and 60% in [9]. Further, the zone of inhibition at 10 µg/mL in assay [2], in assay [6] and in assay [8] was 10 mm throughout. Also, the result in [3] was Active. The result in assay [4], in assay [5] and in [7] was inactive.
